Molecular target: T1, human MC4 receptor (Homo sapiens, UniProt P32245)
T1 construct: purchased Biolinks K.K; host or cells: HEK-293
Assay: MC4 receptor binding experiment ([125I]Nle4-D-Phe7-α-MSH displacement)
Conditions: human MC4 receptor expressing HEK-293 cell membrane; [125I]Nle4-D-Phe7-α-MSH 0.2 nM, 25° C.
Description: The MC4 receptor binding experiment was performed according to the method described in Pharmacology & Toxicology, 79, 161-165, 1996. The human MC4 receptor expressing-cell membrane obtained by expressing the human MC4 receptor in a HEK-293 cell was purchased from Biolinks K.K. The cell membrane was homogenized with 50 mM tris hydrochloride buffer (pH 7.4) containing 2 mM ethylenediaminetetraacetic acid, 10 mM calcium chloride, and 100 μM phenylmethylsulfonyl fluoride. The homogenate was centrifuged at 48,000×g at 4° C. for 20 min. The sediment obtained by centrifugation was rehomogenized with the same buffer, and the homogenate was centrifuged at 48,000×g at 4° C. for 20 min. This procedure was repeated twice. The sediment was suspended in 50 mM tris hydrochloride buffer (pH 7.4) containing 2 mM ethylenediaminetetraacetic acid, 10 mM calcium chloride, 100 μM phenylmethylsulfonyl fluoride, and 0.1% bovine serum albumin at a protein concentration of 100 μg/ml, and the suspension was used as a crude membrane preparation for the binding experiment. The crude membrane preparation (0.25 ml, 25 μg protein) was reacted with [^125I]Nle^4-D-Phe^7-α-MSH (final concentration, 0.2 nM) at 25° C. for 120 min. After completion of the reaction, the reaction solution was filtered by suction, using a cell harvester for the receptor binding experiment, onto a GF/C glass fiber filter paper immersed in 50 mM tris hydrochloride buffer (pH 7.4) containing 0.5% bovine serum for 2 h. Radioactivity on the filter paper was measured using a γ counter. The quantity of binding in the presence of 1 μM Nle^4-D-Phe^7-α-MSH was obtained as nonspecific binding, and specific binding was obtained by deducting the nonspecific binding from the total quantity, binding in the absence of 1 μM Nle^4-D-Phe^7-α-MSH. The test drug was dissolved in 100% DMSO solution and added to the membrane preparation at the same time as [^125I]Nle^4-D-Phe^7-α-MSH. The IC50 value was obtained from the inhibition curve in the range of 10^−10 to 10^−5 M. The binding test results of representative compounds are shown in Table 21 as examples.

T1 sequence (P32245 whole entry): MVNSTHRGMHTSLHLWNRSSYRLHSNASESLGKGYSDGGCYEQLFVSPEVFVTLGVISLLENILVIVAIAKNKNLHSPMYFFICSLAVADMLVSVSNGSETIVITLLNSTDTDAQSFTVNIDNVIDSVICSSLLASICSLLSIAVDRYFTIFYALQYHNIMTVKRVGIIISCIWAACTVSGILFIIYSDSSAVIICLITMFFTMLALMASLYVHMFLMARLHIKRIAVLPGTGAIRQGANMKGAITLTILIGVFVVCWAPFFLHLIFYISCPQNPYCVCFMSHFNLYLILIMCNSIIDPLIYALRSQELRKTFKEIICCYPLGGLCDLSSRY

Row | SMILES | IC50 [µM]
1 | Cc1cc(N[C@@H]2CCN(S(C)(=O)=O)C2)nc(N[C@@H]2CN(C(=O)Cc3ccc(OC(F)(F)F)cc3)C[C@H]2O)n1 [Compound 13-002] | 0.025
2 | CO[C@@H]1CCN(c2cc(C)nc(N[C@@H]3CN(C(=O)Cc4ccc(OC(F)(F)F)cc4)C[C@H]3O)n2)C1 [Compound 13-004] | 0.046
3 | Cc1cc(N2CCCCC2)nc(N[C@@H]2CN(C(=O)Cc3ccc(OC(F)(F)F)cc3)C[C@H]2O)n1 [Compound 13-005] | 0.021
4 | CO[C@@H]1CN(C(=O)Cc2ccc(OC(F)(F)F)cc2)C[C@H]1Nc1nc(C)cc(N2CCOCC2)n1 [Compound 13-008] | 0.036
5 | Cc1cc(N2CCOCC2)cc(N[C@@H]2CN(C(=O)Cc3ccc(OC(F)(F)F)cc3)C[C@H]2O)n1 [Compound 14-001, 1-((3R,4R)-3-hydroxy-4-(6-methyl-4-morpholin-4-ylpyridin-2-ylamino)pyrrolidin-1-yl)-2-(4-trifluoromethoxyphenyl)ethanone] | 0.016
6 | CO[C@@H]1CN(C(=O)Cc2ccc(OC(F)(F)F)cc2)C[C@H]1Nc1cc(N2CCOCC2)cc(C)n1 [Compound 14-002] | 0.019
7 | CO[C@@H]1CN(C(=O)Cc2ccc(OC(F)(F)F)cc2)C[C@H]1Nc1cc(N2CCS(=O)(=O)CC2)cc(C)n1 [Compound 14-003] | 0.0074
8 | O=C1CN(c2nc(N[C@H]3CCN(C(=O)C4(c5ccc(Cl)cc5)CC4)C3)nc3cc(F)ccc23)CCN1 [Compound 15-003] | 0.026
